Values of other authors, collected in US6147189A, “Polypeptides that include conformation-constraining groups which flank a protein-protein interaction site” (Virginia Commonwealth University, priority 1997, dated 2000).
Where a SMILES comes first, the peptide text is derived from it.

System: receptors of sweet tasting papillae
Details: comparison value

Sweetness compared with sugar: 160 times sweeter than sugar
SMILES: COC(=O)[C@H](Cc1ccccc1)NC(=O)[C@@H](N)CC(=O)O [aspartame] (H-Asp-Phe-OMe)
